Measurements from patent publication US8796415B2, “Inhibitors of guanine exchange factors and their use as anticancer drugs” (Centre National de la Recherche Scientifique, priority 2009, dated 2014).
Ends that are not written are not given here.

Experiments:
p115RhoGEF = target: T1, p115RhoGEF (Homo sapiens, UniProt Q92888); conditions: shown previously (Schmidt et al., 2002 and unpublished results); cited from earlier work
T1 construct: GST (N); made in house; host or cells: baculovirus system
T1 sequence (Q92888 1-912): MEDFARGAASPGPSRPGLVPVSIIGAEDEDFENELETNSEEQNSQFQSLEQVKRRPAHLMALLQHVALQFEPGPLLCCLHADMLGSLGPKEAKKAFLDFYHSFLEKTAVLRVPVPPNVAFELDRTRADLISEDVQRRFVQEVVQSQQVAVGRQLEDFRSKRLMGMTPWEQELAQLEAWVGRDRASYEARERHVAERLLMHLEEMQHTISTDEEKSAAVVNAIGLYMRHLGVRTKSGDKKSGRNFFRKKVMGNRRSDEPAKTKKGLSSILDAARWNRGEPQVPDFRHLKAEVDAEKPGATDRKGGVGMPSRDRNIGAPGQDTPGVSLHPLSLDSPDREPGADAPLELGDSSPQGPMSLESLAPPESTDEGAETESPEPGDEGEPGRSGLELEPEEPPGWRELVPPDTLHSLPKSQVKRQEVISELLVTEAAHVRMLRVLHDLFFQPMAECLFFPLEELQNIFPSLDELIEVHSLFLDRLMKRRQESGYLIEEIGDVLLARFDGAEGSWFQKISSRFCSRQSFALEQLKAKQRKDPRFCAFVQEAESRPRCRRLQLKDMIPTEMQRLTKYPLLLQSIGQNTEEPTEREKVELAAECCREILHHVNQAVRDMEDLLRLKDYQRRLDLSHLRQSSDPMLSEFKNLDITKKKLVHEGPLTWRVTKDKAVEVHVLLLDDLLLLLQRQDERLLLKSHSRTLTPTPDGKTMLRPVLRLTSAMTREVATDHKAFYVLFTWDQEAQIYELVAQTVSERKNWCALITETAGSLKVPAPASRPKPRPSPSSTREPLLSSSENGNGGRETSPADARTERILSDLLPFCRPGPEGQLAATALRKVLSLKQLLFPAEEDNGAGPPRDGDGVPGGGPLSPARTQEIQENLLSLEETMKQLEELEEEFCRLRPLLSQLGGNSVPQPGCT

PC12 cells = conditions: Schmidt et al., 2002; cited from earlier work
Dbl = conditions: shown previously (Schmidt et al., 2002 and unpublished results); cited from earlier work
Trio DH2-PH2 [1] = target: T2, Trio DH2-PH2 (Homo sapiens, UniProt O75962); conditions: Schmidt et al., 2002; cited from earlier work
T2 construct: made in house

Lbc = target: T3, Lbc (Homo sapiens, UniProt Q12802); conditions: shown previously (Schmidt et al., 2002 and unpublished results); cited from earlier work
T3 construct: GST-Dbl (DH-PH domain), GST-Lbc (DH-PH), GST-p63RhoGEF (DH domain) and GST-RhoG were purified as described previously; GST (N); made in house
T3 sequence (Q12802 1994-2333): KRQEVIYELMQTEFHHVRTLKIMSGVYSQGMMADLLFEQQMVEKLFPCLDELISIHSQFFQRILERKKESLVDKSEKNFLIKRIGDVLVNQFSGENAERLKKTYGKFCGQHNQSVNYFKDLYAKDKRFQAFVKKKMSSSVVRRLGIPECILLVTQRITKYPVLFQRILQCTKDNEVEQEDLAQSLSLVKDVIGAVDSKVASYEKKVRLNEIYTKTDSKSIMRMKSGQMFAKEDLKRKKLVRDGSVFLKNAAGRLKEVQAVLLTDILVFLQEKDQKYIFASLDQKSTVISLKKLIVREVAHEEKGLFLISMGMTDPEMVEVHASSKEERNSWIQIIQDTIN

Trio DH2-PH2 [2] = target: T2, Trio DH2-PH2; assay: Yeast two-hybrid screening for binding to Trio DH2-PH2; conditions: 3-AT 80-120 mM
Text: The inventors next reasoned that peptides that would bind stronger to the GEF domain may also be better at inhibiting its activity. The inventors thus generated a library of peptide aptamers derived from TRIPα by random mutagenesis, which the inventors screened for GEF binding in a yeast two-hybrid assay. The inventors chose a system in which the threshold of interaction detection can be modulated by the concentration of the 3-aminotriazole (3-AT) drug (Sardet et al., 1995). Since Tgat is toxic in yeast, the inventors used Trio DH2-PH2 to screen this TRIP-like peptide library. […] These clones were then produced as GST fusions and analyzed for their inhibition of Trio DH2-PH2, using the [3H]-GDP dissociation assay.
An aptamer library derived from TRIPα was created by PCR-based random mutagenesis of TRIPα inserted into the yeast two-hybrid vector pPC86. Sequencing of a statistically representative number of clones yielded a mutation rate of ˜3 mutations/clone. 6×10^5 independent clones were screened for interactors, using Trio DH2-PH2 (in the pPC97 vector) as a bait, in the MAV 103 yeast strain, on high concentrations of 3-AT (3-amino-triazol, Sigma) (80-120 mM). Selected peptides were then produced as GST-fusions and analyzed for their inhibition of Trio DH2-PH2 using the [3H]-GDP dissociation assay.

[3] = system: Tgat-expressing NIH3T3 cells; assay: Cell proliferation or apoptosis (data not shown); assay type: cell-based
[4] = system: NIH3T3 cells stably expressing GFP-Tgat; assay: Tumor formation in Balb/c nude mice grafted with NIH3T3 cells expressing Tgat; assay type: in vivo
Protocol: FIG. 10A represents tumor formation in Balb/c nude mice. NIH3T3 cells stably expressing GFP-Tgat/GST or GFP-Tgat/GSTTRIP E32G were injected subcutaneously into the flanks of Balb/c nude mice and tumor volume was measured every week. The graph is representative of the three independent assays that were performed.
FIG. 10B represents the tumor weights (in grams) after the experiments. Ten weeks post graft, mice were euthanised, tumors were excised and weighed, and the mean tumor weight was plotted on the graph. (*) A paired Student's t-test was performed, matching the samples for each mouse, and the P value was 0.019. Error bars represent standard deviation in all graphs.
Female Balb/c nu/nu mice were purchased from Charles River France and used at 6-8 weeks of age. 12 Balb/c nu/nu mice were subcutaneously grafted with 2×10^6 cells of each cell line on both sides (Tgat on the left and Tgat+TRIPE32G on the right flank of the leg). The appearance of tumors was scored visually every week. 10 weeks post graft, mice were euthanized and tumors excised and weighed. mRNA and protein levels in the tumors were verified by RT-PCR and Western blot (data not shown).

Sequence of Dbl (P10911 495-809 limits assumed): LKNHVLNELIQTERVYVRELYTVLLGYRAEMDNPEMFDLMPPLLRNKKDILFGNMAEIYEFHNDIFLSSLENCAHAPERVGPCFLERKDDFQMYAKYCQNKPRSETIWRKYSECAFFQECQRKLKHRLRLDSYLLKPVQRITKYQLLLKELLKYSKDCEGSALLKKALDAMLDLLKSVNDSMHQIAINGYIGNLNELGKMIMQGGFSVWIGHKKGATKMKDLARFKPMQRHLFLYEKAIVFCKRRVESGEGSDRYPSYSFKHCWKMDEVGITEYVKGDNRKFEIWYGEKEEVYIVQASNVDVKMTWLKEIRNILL

Row | interaction with Trio DH2-PH2 in yeast two-hybrid assay (Trio DH2-PH2 [2]) | Substance | activity on p115RhoGEF (p115RhoGEF) | neurite retraction phenotype induced by Trio DH2-PH2 (PC12 cells) | activity on Dbl (Dbl) | inhibition of Trio DH2-PH2 activation of RhoA (Trio DH2-PH2 [1]) | activity on Lbc (Lbc) | non-specific effect on cell proliferation or apoptosis [3] | number of mice with tumors ([4]; 12 mice grafted subcutaneously, peptide co-expressed with Tgat, Tgat alone ten out of twelve) | delay in the formation of tumors ([4]; peptide co-expressed with Tgat, versus Tgat alone) | weight of the tumors ([4]; ten weeks post graft, paired Student's t-test P value 0.019)
1 | no interaction | AREGADGAICGYNLATLVMLGPSERVFCPLCEPCSSDIYELM [TRIPα] | not active | reverting the neurite retraction phenotype | not active | inhibits its activation of RhoA both in vitro and in intact cells | not active | – | – | – | –
2 | – | GST-TRIPE32G (AREGADGAICGYNLATLVMLGPSERVFCPLCGPCSSDIYELM; cysteine pairing not given here; also: GST fusion) | – | – | – | – | – | not due to a non-specific effect of TRIPE32G on cell proliferation or apoptosis | seven | about three | significantly reduced
